{"source": "paper PMC12378621", "about": "“Benzo-ring modification on Malaria Box hit MMV008138: effects on antimalarial potency and microsomal stability” (RSC Medicinal Chemistry, 2025)", "key": {"[1]": {"system": "P. falciparum (Dd2 strain)", "test": "ABS P. falciparum growth inhibition, SYBR Green I assay, 72 h endpoint", "assay_type": "cell-based, Plasmodium falciparum", "settings": "Plasmodium falciparum, DD2; control in growth inhibition / IPP rescue assays; read-out: EC50 of MMV008138 used as control", "experimental": "Parasites were maintained in O-positive human erythrocytes (Grifols, Memphis, TN, USA) at 5% hematocrit in RPMI 1640 medium supplemented with 5 g L^−1 Albumax I (Gibco Life Technologies), 2 g L^−1 glucose (Sigma-Aldrich), 2.3 g L^−1 sodium bicarbonate (Sigma-Aldrich), 370 μM hypoxanthine (Sigma-Aldrich), 25 mM HEPES, and 20 mg L^−1 gentamicin (Gibco Life Technologies). The parasites were kept at 37 °C under reduced-oxygen conditions (5% CO2, 5% O2, and 90% N2).\n[…]. MMV008138 (1) was used as control. The percentage of growth was normalized to that of untreated control parasites in the presence of 0.1% DMSO. Background determinations were made using uninfected erythrocytes. Two or more independent experiments in duplicate were performed. The EC50 values were calculated with GraphPad Prism 9 (GraphPad Software Ltd.) using nonlinear regression curve fitting with variable slope (four parameters) and represent the average and their standard error of the mean (S.E.M.). To assess whether 20a–e specifically targeted the apicoplast, the recovery of growth in the presence of inhibitor and isopentenyl diphosphate (IPP) was performed as described previously.[8] Briefly, parasites were grown in the presence or absence of 200 μM IPP along with a serial dilution (10 μM to 0.01 μM) or single concentration (10 or 20 μM) of drug. […] All conditions were set in 96-well half area plates using highly synchronous ring-stage parasite cultures (100 μL per well at 1% hematocrit and 1% parasitemia) and incubated for 72 h under normal culture conditions. Parasite growth was measured by the SYBR green I assay."}, "in vitro": {"test": "in vitro", "settings": "male, mouse, microsomes", "experimental": "Metabolic stability of 1 was studied in pooled male mouse liver microsomes (final concentration 0.5 mg/mL, 5 mM MgCl 2, 100 mM phosphate buffer). The final concentration of test […]\nThe mixture was pre-warmed 37°C for 5 min before addition of 50 μL of 10 mM NADPH solution at the final concentration of 1 mM and carried out at 37°C. 50 μL of ultra-pure H2O was used instead of NADPH solution in the […]\nnegative control. […] Drug […]\nconcentrations were determined using triple quad LC-MS (Table S5).\n(§1) (1 picture or pasted object on this page, not shown here)"}, "in vivo": {"test": "in vivo", "settings": "mouse", "experimental": "3. Pharmacokinetics of 1 in mice\nPharmacokinetic analysis of 1 in mice was performed by Pharmaron (Beijing, China). Three mice each (23 ± 1 g) were used for oral (40 mg/kg, gavage, conscious) and for IV (10 mg/kg, lateral tail vein with anesthesia) administration. The vehicle for both routes wa s 20% DMSO, 60% PEG400 and 20% SBE-β-CD (30% w/v) in water. Stock concentrations were 4 mg/mL (both oral and IV respectively), and mice were dosed at 10.0 and 2.5 mL/kg (oral and IV respectively).\nQuantitation was performed by triple-quad LC-MS."}, "[2]": {"system": "Plasmodium berghei ANKA expressing luciferase (PbGFP-Luccon)", "test": "In vivo efficacy in P. berghei-infected mice (luminescence on Day 7)", "experimental": "2. In vivo efficacy studies of 1 (NYU) in P. berghei-infected mice (po and iv) Efficacy of 1 in P. berghei-infected mice was assessed at the Anti-Infectives Core Facility, Department of Microbiology, Grossman School of Medicine, New York University.\nA. Oral Administration Protocol\nThree groups of five female Swiss Webster mice weighing 25 to 30 g were used for vehicle […]\nberghei ANKA expressing luciferase (PbGFP-Luccon) obtained from a donor infected mouse.10 […]\n2 to 6 and imaged on day 7.\nFigure S1. Dosing and imaging timeline of P. berghei-infected mice. […]\nDay 7 as described in the text.\nThe vehicle for all groups was 0.5% (hydroxypropyl)methyl cellulose, 0.5% Tween-80.\nFor the surviving mice, o n day 7 after infection, mice were anesthetized by inhalation of isofluorane and injected via i.p. with 150 mg/kg of luciferase substrate dissolved in PBS (D-Luciferin Potassium Salt , Gold Biotechnology ).\nMice were imaged 5 to 10 min after inj ection of luciferin using an IVIS imager (Lumina II In Vivo Imaging System; Perkin -Elmer). The data acquisition and analysis were performed with LivingImage (Xenogen). Accumulated light intensity was measured in each mouse to determine the baseline infection levels before treatment .\nas §1\nB. IV Administration Protocol\nOne group of four female Swiss Webster mice weighing 25 to 30 g were used for vehicle control, and groups of five mice were used for 1 treatment (IV, 2 x 30 mg/kg/d) and the positive […]\nOn Day 0, mice were infected via intraperitoneal (i.p.) […]\nfrom a donor infected mouse. 10 As shown below in Figure S2 (and legend), mice were treated […]\nFigure S2. Dosing and imaging timeline of P. berghei-infected mice. Vehicle and 1 (30 mpk) treatments were administered IV twice -daily on Days 2-6. […]\nadministered i .p. once-daily. Mice were imaged on Day 7, as described in the text.\nThe vehicle for this study was 30%PEG, 40% Captisol (30%w/v solution).\nTable S2. Luminescence Data after background subtraction for IV dosing of Vehicle, 1, and IP […]\nTable S9. Concentration of 20c vs time in mice. […]\nFigure S6. Dosing and imaging timeline of P. berghei-infected mice. […]"}, "[3]": {"system": "P. falciparum (Dd2 strain)", "settings": "SYBR Green I, 72 h endpoint; previously reported; read-out: Dd2 strain P. falciparum growth inhibition EC50; cited from earlier work"}, "[4]": {"system": "P. falciparum (Dd2 strain)", "set-up": "method as in PMID 25754494", "settings": "drug at 2.5 μM; previously reported; cited from earlier work"}, "P. falciparum IspD": {"system": "P. falciparum IspD", "set-up": "method as in PMID 26783558", "settings": "cited from earlier work"}, "P. vivax IspD": {"system": "P. vivax IspD", "set-up": "method as in PMID 26783558", "settings": "cited from earlier work"}, "[5]": {"settings": "iv, 10 mg/kg, plasma concentration"}, "[6]": {"settings": "po, 40 mg/kg, plasma concentration"}, "[7]": {"settings": "Table S2, Days 2-6, imaged Day 7, Cmpd 1 30 mg/kg 2 x daily IV, CQ 20 mg/kg 1 x daily i.p."}}, "note": "“And” between values parts separate entries of the source, which are not always exact repeats. Equal values may be shown once. Read-outs that look alike come from different tables or passages of the source."}
{"compound": "O=C(O)[C@@H]1Cc2c([nH]c3ccccc23)[C@@H](c2ccc(Cl)cc2Cl)N1", "note": "[Compound 1, reference compound]", "values": [{"measurement": "EC50", "setting": "[1]", "value": "170 ± 10", "unit": "nM"}, {"measurement": "half-life at 1 µM", "setting": "in vitro", "value": "~0.167", "unit": "h"}, {"measurement": "% remaining at 60 min", "setting": "in vitro; 1 h, 1 µM", "value": 103.9, "unit": "%"}, {"measurement": "AUC(0-inf)", "setting": "in vivo; iv, 10 mg/kg", "value": "38.4 ± 3.8", "unit": "µM·h"}, {"measurement": "AUC(0-t)", "setting": "in vivo; iv, 10 mg/kg", "value": "36.1 ± 3.6", "unit": "µM·h"}, {"measurement": "C0", "setting": "in vivo; iv, 10 mg/kg", "value": "86 ± 6.6", "unit": "µM"}, {"measurement": "Vd", "setting": "in vivo; iv, 10 mg/kg", "value": "3.5 ± 0.43", "unit": "L/kg"}, {"measurement": "clearance", "setting": "in vivo; iv, 10 mg/kg", "value": "12.1 ± 1.3", "unit": "mL/min/kg"}, {"measurement": "tlast", "setting": "in vivo; iv, 10 mg/kg", "value": 24, "unit": "h"}, {"measurement": "concentration at 24 h", "setting": "in vivo; iv, 10 mg/kg, Cmin", "value": "0.164 ± 0.017", "unit": "µM"}, {"measurement": "concentration at 0.083 h", "setting": "in vivo; [5]", "value": "58.6 ± 5.5", "unit": "µM"}, {"measurement": "concentration at 0.25 h", "setting": "in vivo; [5]", "value": "27.1 ± 3.7", "unit": "µM"}, {"measurement": "concentration at 0.5 h", "setting": "in vivo; [5]", "value": "14.8 ± 1.9", "unit": "µM"}, {"measurement": "concentration at 1 h", "setting": "in vivo; [5]", "value": "4.8 ± 1.7", "unit": "µM"}, {"measurement": "concentration at 2 h", "setting": "in vivo; [5]", "value": "1.3 ± 0.4", "unit": "µM"}, {"measurement": "concentration at 4 h", "setting": "in vivo; [5]", "value": "0.66 ± 0.04", "unit": "µM"}, {"measurement": "concentration at 8 h", "setting": "in vivo; [5]", "value": "0.51 ± 0.03", "unit": "µM"}, {"measurement": "concentration at 24 h", "setting": "in vivo; [5]", "value": "0.16 ± 0.02", "unit": "µM"}, {"measurement": "half-life", "setting": "in vivo; iv, 10 mg/kg, t1/2", "value": "9.9 ± 4", "unit": "h"}, {"measurement": "AUC0-inf", "setting": "in vivo; po, 40 mg/kg", "value": 88, "unit": "µM·h"}, {"measurement": "AUC(0-inf)", "setting": "in vivo; po, 40 mg/kg", "value": "88 ± 15", "unit": "µM·h"}, {"measurement": "AUC(0-t)", "setting": "in vivo; po, 40 mg/kg", "value": "79 ± 8.9", "unit": "µM·h"}, {"measurement": "Cmax", "setting": "in vivo; po, 40 mg/kg", "value": "46.1 ± 7.3", "unit": "µM"}, {"measurement": "Tmax", "setting": "in vivo; po, 40 mg/kg", "value": 0.25, "unit": "h"}, {"measurement": "tlast", "setting": "in vivo; po, 40 mg/kg", "value": 24, "unit": "h"}, {"measurement": "bioavailability", "setting": "in vivo; po, 40 mg/kg, % F", "value": 57, "unit": "%"}, {"measurement": "bioavailability", "setting": "in vivo; po, 40 mg/kg, %F", "value": "57 ± 10", "unit": "%"}, {"measurement": "concentration at 24 h", "setting": "in vivo; po, 40 mg/kg, Cmin", "value": "0.65 ± 0.35", "unit": "µM"}, {"measurement": "concentration at 0.25 h", "setting": "in vivo; [6]", "value": "46.1 ± 8", "unit": "µM"}, {"measurement": "concentration at 0.5 h", "setting": "in vivo; [6]", "value": "28.2 ± 4.1", "unit": "µM"}, {"measurement": "concentration at 1 h", "setting": "in vivo; [6]", "value": "12.7 ± 2.7", "unit": "µM"}, {"measurement": "concentration at 2 h", "setting": "in vivo; [6]", "value": "5.4 ± 0.31", "unit": "µM"}, {"measurement": "concentration at 4 h", "setting": "in vivo; [6]", "value": "3.2 ± 0.25", "unit": "µM"}, {"measurement": "concentration at 8 h", "setting": "in vivo; [6]", "value": "2.4 ± 0.45", "unit": "µM"}, {"measurement": "concentration at 24 h", "setting": "in vivo; [6]", "value": "0.64 ± 0.35", "unit": "µM"}, {"measurement": "half-life", "setting": "in vivo; po, 40 mg/kg, t 1/2", "value": 8.5, "unit": "h"}, {"measurement": "half-life", "setting": "in vivo; po, 40 mg/kg, t1/2", "value": "8.5 ± 0.24", "unit": "h"}, {"measurement": "reduction in parasitemia", "setting": "[2]; P. berghei mouse model, IV dosing", "value": "no reduction in parasitemia"}, {"measurement": "reduction in parasitemia / efficacy", "setting": "[2]; P. berghei mouse model, oral dosing (20c 5 × 40 mg per kg per day)", "value": "no reduction in parasitemia"}, {"measurement": "Live/Dead and luminescence, individual mice", "setting": "[2]; Table S1, oral 1 x daily Days 2-6, imaged Day 7, Cmpd 1 45 mg/kg, CQ 20 mg/kg", "value": "Dead by Day 6 and Dead by Day 7 and 1.33E+06"}, {"measurement": "Luminescence after background subtraction AVG", "setting": "[2]; [7]", "value": "1.39E+06"}, {"measurement": "Luminescence after background subtraction, individual mice", "setting": "[2]; [7]", "value": "9.49E+05 and 1.50E+06 and 1.72E+06 and 2.00E+06 and 7.68E+05"}, {"measurement": "treated mice dead by Day 7 (of 5)", "setting": "[2]; oral 45 mg/kg/d Days 2-6", "value": 4}, {"measurement": "EC50", "setting": "[3]", "value": "250 ± 70", "unit": "nM"}, {"measurement": "% recovery (200 μM IPP)", "setting": "[4]", "value": 100, "unit": "%@2.5 μM ^c"}, {"measurement": "IC50", "setting": "P. falciparum IspD", "value": 47, "unit": "nM"}, {"measurement": "IC50", "setting": "P. vivax IspD", "value": 310, "unit": "nM"}]}
